Results: ChEMBL document CHEMBL4417641, “Use of 2-(substituted phenylamino)benzoic acid fto inhibitor in treating leukemia” (2018)
Calls of active or inactive are those of the source. The calls are words filed in the database; no cut-off is given here.

Assays:
[1] = system: NB-4; assay: Cytotoxicity against human NB4 cells assessed as inhibition of cell growth incubated for 72 hrs by MTS assay relative to control; format: functional
[2] = Cytotoxicity against human MM6 cells assessed as inhibition of cell growth incubated for 72 hrs by MTS assay relative to control; format: functional
[3] = target: Alpha-ketoglutarate-dependent dioxygenase FTO (Homo sapiens, UniProt Q9C0B1); assay: Inhibition of FTO (unknown origin) assessed as reduction in demethylation using 39nt-m6 A-ssDNA and 2OG incubated for 2 hrs by non-denaturing polyacrylamide electrophoresis method
[4] = system: MONO-MAC-6; assay: Antitumor activity against human MONO-MAC-6 cells xenografted in NSG mouse assessed as mouse survival at 2 mg/kg, ip dosed for ten consecutive days and measured after 62 days post treatment; format: functional; conditions: MONO-MAC-6, ip, 1488 h
[5] = system: MONO-MAC-6; assay: Antitumor activity against human MONO-MAC-6 cells xenografted in NSG mouse assessed as mouse survival at 2 mg/kg, ip dosed for ten consecutive days and measured after 40 days post treatment; format: functional; conditions: MONO-MAC-6, ip, 960 h
[6] = system: MONO-MAC-6; assay: Antitumor activity against human MONO-MAC-6 cells xenografted in NSG mouse assessed as improvement in liver swelling by measuring liver weight at 2 mg/kg, ip dosed for ten consecutive days (reference value: 2200 mg); format: functional
[7] = system: MONO-MAC-6; assay: Antitumor activity against human MONO-MAC-6 cells xenografted in NSG mouse assessed as mouse survival at 2 mg/kg, ip dosed for ten consecutive days and measured after 55 days post treatment; format: functional; conditions: MONO-MAC-6, ip, 1320 h
[8] = system: MONO-MAC-6; assay: Antitumor activity against human MONO-MAC-6 cells xenografted in NSG mouse assessed as mouse survival at 2 mg/kg, ip dosed for ten consecutive days and measured after 120 days post treatment; format: functional; conditions: MONO-MAC-6, ip, 2880 h
[9] = system: MONO-MAC-6; assay: Antitumor activity against human MONO-MAC-6 cells xenografted in NSG mouse assessed as mouse survival at 2 mg/kg, ip dosed for ten consecutive days and measured after 60 days post treatment; format: functional; conditions: MONO-MAC-6, ip, 1440 h
[10] = system: NB-4; assay: Cytotoxicity against human NB4 cells assessed as inhibition of cell growth incubated for 72 hrs by MTS assay; format: functional, cell-based; conditions: NB-4, 72 h
[11] = Cytotoxicity against human MM6 cells assessed as inhibition of cell growth incubated for 72 hrs by MTS assay; format: functional, cell-based
[12] = system: NB-4; assay: Cytotoxicity against human NB4 cells assessed as inhibition of cell growth incubated for 48 hrs by MTS assay; format: functional, cell-based; conditions: NB-4, 48 h
[13] = Cytotoxicity against human MM6 cells assessed as inhibition of cell growth incubated for 48 hrs by MTS assay; format: functional, cell-based
[14] = system: MONO-MAC-6; assay: Antitumor activity against human MONO-MAC-6 cells xenografted in NSG mouse assessed as reduction in tumor cell transplantation efficiency at 2 mg/kg, ip dosed for ten consecutive days and measured after 40 to days post treatment; format: functional, organism-based
[15] = system: MONO-MAC-6; assay: Antitumor activity against human MONO-MAC-6 cells xenografted in NSG mouse assessed as improvement in spleen swelling by measuring spleen weight at 2 mg/kg, ip dosed for ten consecutive days (reference value: 55 mg); format: functional

Alpha-ketoglutarate-dependent dioxygenase FTO, sequence (Q9C0B1 whole entry): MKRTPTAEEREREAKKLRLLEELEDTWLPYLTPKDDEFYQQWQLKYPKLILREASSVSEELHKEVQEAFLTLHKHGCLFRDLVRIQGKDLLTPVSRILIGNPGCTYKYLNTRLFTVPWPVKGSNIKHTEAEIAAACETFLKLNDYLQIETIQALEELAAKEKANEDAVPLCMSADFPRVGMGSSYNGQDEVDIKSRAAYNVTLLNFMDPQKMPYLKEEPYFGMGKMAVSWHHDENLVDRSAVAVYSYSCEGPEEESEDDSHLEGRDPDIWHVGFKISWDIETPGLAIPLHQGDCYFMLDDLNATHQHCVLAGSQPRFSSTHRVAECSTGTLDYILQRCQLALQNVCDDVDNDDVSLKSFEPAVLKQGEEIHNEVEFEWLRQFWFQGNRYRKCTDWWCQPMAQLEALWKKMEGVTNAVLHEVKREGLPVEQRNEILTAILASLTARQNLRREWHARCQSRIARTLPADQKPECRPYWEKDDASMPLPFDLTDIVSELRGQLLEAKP

IC50 [3] [µM]	SMILES	growth inhibition (GI) [1] [%]	growth inhibition (GI) [2] [%]	IC50 [10] [µM]	IC50 [11] [µM]	also measured
	Cc1n[nH]c(C)c1-c1cc(Cl)c(Nc2ccccc2C(=O)O)c(Cl)c1	20	18			
	Cc1noc(C)c1-c1cc(Cl)c(Nc2ccccc2-c2nn[nH]n2)c(Cl)c1	26	23			
30 to 50	Cc1cc(C)n(-c2cc(Cl)c(Nc3ccccc3C(=O)O)c(Cl)c2)n1					
4.6	O=C(O)c1ccccc1Nc1c(Cl)cc(-c2ccncc2)cc1Cl	39	46			
1.1	Cc1noc(C)c1-c1cc(Cl)c(Nc2ccccc2-c2noc(=O)[nH]2)c(Cl)c1	100	100	5.3	5.8	IC50 [12]: 6.3 µM; IC50 [13]: 9.9 µM
1.2	O=C(O)c1ccc(-c2cc(Cl)c(Nc3ccccc3C(=O)O)c(Cl)c2)s1					
7.6	O=C(O)c1ccccc1Nc1c(Cl)cc(-c2ccn[nH]2)cc1Cl	25	29			
	Cc1noc(C)c1-c1cc(Cl)c(Nc2ccccc2C(=O)O)c(Cl)c1	70	75	44.8	23.6	

SMILES	IC50 [3] [µM]	growth inhibition (GI) [1] [%]	growth inhibition (GI) [2] [%]	IC50 [10] [µM]	IC50 [11] [µM]	also measured
Cc1noc(C)c1-c1cc(Cl)c(Nc2ccccc2C(=O)NO)c(Cl)c1	1.6	100	100	0.8	1.5	survival at 2 mg/kg [4]: 30%; survival at 2 mg/kg [5]: 80%; Activity [6]: 800 mg; survival at 2 mg/kg [7]: 60%; survival at 2 mg/kg [8]: 15%; survival at 2 mg/kg [9]: 40%; IC50 [12]: 4.7 µM; IC50 [13]: 10.4 µM; Activity [14]: Active; Activity [15]: 18 mg
